{"source": "patent US12447167B2", "about": "“GM-CSF-producing t-cell control agent and Th1/Th2 immune balance regulator” (National Center of Neurology and Psychiatry, priority 2014, dated 2025)", "system": "IFN-γ", "experiment": "IFN-γ expression level of sorted CD4-positive memory T-cells of MS patients (ELISA of culture supernatant)", "type": "in vivo, human", "conditions": "0.3 mg single oral", "protocol": "A single dose of compound 31, which is a synthetic glycolipid of the present invention, described in the first aspect was orally administered to each of 2 MS patients (subjects) shown in Table 2 above after obtainment of informed consent. The dose was set to 0.3 mg per person.\nSubsequently, T-cell subfractions were prepared from the peripheral blood of each subject by using the density gradient centrifugation method. First, a total of 20 mL of blood was collected from the vein of each subject 24 hours (1st day), 48 hours (2nd day), 72 hours (3rd day), 168 hours (7th day), and 192 hours (8th day) after the administration of compound 31 by using two 10-mL heparin sodium-containing vacuum blood collection tubes. For a control, 20 mL of blood was similarly collected from the vein of each subject one day before the administration of compound 31.\nThe collected PBMCs were stained with antibodies by the following method. First, 10 μL of a solution consisting of 20 μL of MACS buffer, 0.25 μL of APC-Cy7-anti-CD3 antibody (BioLegend, Inc.), 1 μL of PB-anti-CD4 antibody (BioLegend, Inc.), 1 μL of PerCP-Cy5.5-anti-CD45RA antibody (BioLegend, Inc.), and 1 μL of PC7-anti-CD56 antibody (Beckman Coulter, Inc.) was added to 6×10^6 cells of PBMCs, thoroughly mixed by vortexing, and then left on ice for 20 minutes. CD56 is a detection marker of cells having NK activity, and CD3^−CD56^− cells indicate being antigen-presenting cells (APCs). […]\nmCD4T and APC obtained by the sorting were each suspended in a medium consisting of 500 mL of RPMI1640 (GIBCO/Thermo Fisher Scientific Inc.), 5 mL of glutamine (200 mM, Wako Pure Chemical Industries, Ltd.), 5 mL of Pen/strep (10,000 U/mL, GIBCO/Thermo Fisher Scientific Inc.), 0.5 mL of 2-mercaptoethanol (GIBCO/Thermo Fisher Scientific Inc.), and 50 mL of 10% (v/v) Cellect FETAL BOVINE SERUM (MP Biomedicals, LLC), and the number of cells was measured. […]\nAfter the culture, a culture supernatant was collected, and IFN-γ, IL-4, IL-17, and GM-CSF were measured by the ELISA method. […]"}
{"smiles": "CCCCCCCCCCCCCCCCCCCCCCCC(=O)NC(COC1OC(CO)C(O)C(O)C1O)[C@H](O)C(O)CCCCC", "note": "(stereo in doubt) [compound 31, (2S,3S,4R)-1-O-(α-D-galactosyl)-2-(N-tetracosanoylamino)-1,3,4-nonanetriol]", "values": [{"measurement": "IFNγ expression level", "setting": "day 8, MBP stimulation (culture condition B), day −1 value 28528.18", "value": 7006.30}, {"measurement": "IFNγ expression level", "setting": "day 8, OVA stimulation (culture condition A), day −1 value 23489.34", "value": 5032.43}, {"measurement": "change of expression level of IFN-γ", "setting": "day8 vs day-1", "value": "decreased"}]}
